Source: patent publication US20260159474A1, “Aminoindane Compounds and Compositions and Methods of Their Therapeutic Use” (Solvonis Therapeutics Ireland Holdings Limited, priority 2021, published 2026)
Like-named read-outs stand apart in the source and are kept apart here.

Columns and labels:
[1] = Plasma protein binding by equilibrium dialysis, rat plasma; type: in vitro ADME; conditions: for Rat Plasma (Fu %): fraction unbound, 0.5 μM; for fraction unbound at 5 h, 0.5 μM: male, Sprague Dawley, rat, plasma, pH 7.4, read-out: Rat Plasma (Fu %)
Experimental: Methods: Plasma protein binding and blood tissue binding of test items (0.5 μM) was determined using biological samples from male Sprague Dawley (SD) rats and humans. […] Dexamethasone was used as a control compound for lung tissue binding. Various biological samples were spiked with test compounds according to the methods that follow.
Preparation of plasma or blood samples: An appropriate amount of test compound was dissolved in DMSO to yield a 10 mM solution. Further dilutions, to obtain 50 μM working solutions (WS), were then prepared using 50% acetonitrile in Milli-Q water. These 100×WS were used to spike plasma or blood to obtain a final concentration of 0.5 μM. From this initial spiking solution, control samples (n=3), referred to as T=0, were immediately extracted and used to calculate the recovery of the test item.
An equilibrium dialysis method was performed to determine protein binding in the various biological samples described herein. Materials were prepared and methods were in accordance with the following procedures.
Membranes were prepared for use in the equilibrium dialysis experiment. by soaking in deionized water for at least 60 minutes. After this period, 20% of pure ethanol was added, and the membranes were left in this solution for at least 20 minutes. The membranes were then rinsed in Milli-Q water prior to use.
To initiate the experiment, 150 μL of test item-free buffer (isotonic phosphate buffer for plasma and blood, artificial CSF buffer for brain or HBSS buffer for lung) was dispensed on one half-well of a 96-well dialyzer apparatus (HTDialysis LLC), and 150 μL of spiked matrix (plasma, blood, brain or lung) was loaded on the other half-well. Alternative volumes may be used according to the operating instructions of HTDialysis.
Dialysis buffer was prepared by dissolving Na2HPO4 8.69 g, KH2PO4 1.90 g, and NaCl 4.11 g in […] of MilliQ water, and adjusting the pH to 7.4 with H3PO4. At the end of the equilibration period (device is sealed and incubated under shaking for 5 hours at 37° C.), 50 μL of dialysed matrix will be added to 50 μL of corresponding test item free dialysed buffer, and vice versa for buffer, such that the volume of buffer to matrix will be the same. Samples were extracted by protein precipitation with 300 μL of acetonitrile containing rolipram (for positive ionization mode) or diclofenac (for negative ionization mode) as internal standard and centrifuged for 10 minutes at 2800 rpm. […]
Samples were then injected onto an HPLC MS/MS or UPLC MS/MS system. In order to control the integrity of the membrane after the dialysis process, the presence of protein was assessed in the buffer compartment. […]
Samples were analyzed in a LC-MS/MS system using an analytical method to monitor the compound to internal standard peak area ratios as representative of the compound concentrations. Alternatively, samples were analyzed by RapidFire.
Protein binding in plasma, blood, brain, and lung tissue samples were determined with the following formula: Afu=Buffer/x, wherein “x” may be plasma, blood, brain, or lung, and “Afu” is the apparent fraction unbound, and the other variables refer to the analyte/internal standard ratio determined in their specific compartment (buffer, plasma, blood, brain homogenate, and lung homogenate); Fucr-(1/D)/[(1/Afu)-1+(1/D)], wherein fucr is the fraction unbound corrected, D is the matrix dilution factor (D=1 for plasma, 2 for blood, 3 for brain, 7 for lung). % Binding=(1−fucr)×100 and % Unbound=100—% Bound. […]

[2] = In vivo pharmacokinetics and brain penetration in rats after IV administration; conditions: rat; for Kp at 2 h: 2 hours post-administration, read-out: brain to plasma ratio; for Vd: read-out: Vss
Experimental: Group 1: Therapeutic compounds were administered via the IV route to three rats at a target dose level of 0.5 mg/kg. Blood and brain samples were collected at 2 h after IV administration. Group 2: Therapeutic compounds were administered via the IV route to three rats (brain penetration group) at a target dose level of 0.5 mg/kg. Blood and brain samples were collected at 2 h after IV administration. Group 3: Therapeutic compounds were orally administered to three rats at a target dose level of 1 mg/kg.
All test formulations were prepared on the day of administration prior to dosing, stored at room temperature, and used as soon as possible. Formulations were prepared and administered by volume IV dosing. Actual body weights were determined on the day of dose administration, and the dose volumes were adjusted to the weight of the animal at the time of dose administration.
Blood was collected into K3 EDTA tubes at each of the following time points post-administration:
Group 1 (IV): 0.083, 0.33, 1, 2, 4, 6, 8, and 24 hours after dosing Group 2 (IV): 2 hours after dosing for terminal brain analysis
All blood samples were thoroughly and gently mixed following collection and placed on wet ice. Within 0.5 h of collection, blood was centrifuged (3000 g for 10 minutes at approximately 4° C.). Within 0.5 hours, 20 μL of each plasma sample was transferred into micronic tubes containing 80 μL of 0.1N Hepes buffer (pH 7.0-7.5). Residual plasma was transferred in micronic tubes as a second aliquot.
Brain specimens were diluted with 4 volumes of 0.1 N Hepes buffer and homogenized using the Precellys system. Blood and brain samples were assayed using an optimized method based on protein precipitation with acetonitrile followed by HPLC/MS-MS analysis. Given the unknown stability of the analytes in blood and brain, calibration standards (CS) and quality control samples (QC) were prepared in blood and brain samples on the day of dosing and stored together with study samples. It is assumed that this procedure accounted for any possible analyte degradation.
Study samples, CS, QC, and blanks were spiked with an internal standard (IS), to improve the precision of the assay. Study samples were analyzed together with CS, QC and blank samples (including double blanks). From the calibration curve, the linear range of the analytical method was determined and the lower/upper limits of quantitation were specified.
The results of blood and brain specimens were subjected to non-compartmental pharmacokinetic analysis using Phoenix WinNonlin 6.3, with the following parameters reported: Calculated concentration of test items in the corresponding formulation (expressed as mg/mL), dose levels (expressed as mg/kg) for each compound, actual collection times (expressed as hh: mM), blood concentrations (expressed as ng/ml) for each compound, brain concentrations (expressed as ng/g) for each compound, PK parameters (iv: Cmax, AUC, CLp, Vss, t1/2, if applicable; oral (PO): Cmax, tmax, AUC, F %, Fa %, Eh, AUC BB ratio, if applicable) for each compound, and abnormal clinical signs and relevant findings, if any.

[3] = brain and plasma, 0.5 mg/kg, IV
[4] = plasma, IV, 0.5 mg/kg, read-out: Clearance
[5] = plasma, IV, 0.5 mg/kg, read-out: Cmax

Compound: COC(=O)c1cc2c(cc1OC)CC(N)C2 (centres unmarked) [CMP-401]
- Rat Plasma (Fu %) [1]: Low

Compound: COC(=O)c1ccc2c(c1)CC(N)C2 (centres unmarked) [CMP-405, 2-aminoindane-5-methylcarboxylate]
- Rat Plasma (Fu %) [1]: high binding in plasma specimens and Low
- Kp at 2 h [2, 3]: 2.12
- AUC(0-inf) ([2]; plasma, IV, 0.5 mg/kg): 334 ng·h/mL
- AUC(0-t) ([2]; plasma, IV, 0.5 mg/kg): 330 ng·h/mL
- half-life ([2]; plasma, IV, 0.5 mg/kg): 19.8 min
- clearance [2, 4]: 25.5 mL/min/kg
- Cmax [2, 5]: 808 ng/mL
- Vd ([2]; plasma, IV, 0.5 mg/kg): 0.602 L/kg
- Clast ([2]; IV, 0.5 mg/kg): 8.08 ng/mL
- Tlast ([2]; IV, 0.5 mg/kg): 2 h

Compound: CNC(C)Cc1ccc2c(c1)OCO2 (centres unmarked) [MDMA]
- Rat Plasma (Fu %) [1]: >50%
- AUCinf ([2]; IV, 1 mg/kg): 384 ng·h/mL
- AUClast ([2]; IV, 1 mg/kg): 367 ng·h/mL
- Clast ([2]; IV, 1 mg/kg): 12.1 ng/mL
- Cmax ([2]; IV, 1 mg/kg): 625 ng/mL
- T1/2 ([2]; IV, 1 mg/kg): 57.2 min
- Tlast ([2]; IV, 1 mg/kg): 4 h
- Vss ([2]; IV, 1 mg/kg): 3.02 L/kg
- clearance ([2]; IV, 1 mg/kg): 45.6 mL/min/kg

Compound: COc1ccc2c(c1)CC(N)C2 (centres unmarked) [MEAI, 5-methoxy-2-aminoindane]
- fraction unbound at 5 h, 0.5 μM [1]: > 0.5
- Kp at 2 h [2, 3]: 2.21
- Kp uu at 2 h ([2]; brain and plasma, intravenous, 0.5 mg/kg, assuming free plasma concentration equals total plasma concentration): 0.71
- AUC(0-inf) ([2]; plasma, IV, 0.5 mg/kg): 788 ng·h/mL
- AUC(0-t) ([2]; plasma, IV, 0.5 mg/kg): 773 ng·h/mL
- half-life ([2]; plasma, IV, 0.5 mg/kg): 29.6 min
- clearance [2, 4]: 10.6 mL/min/kg
- Cmax [2, 5]: 1400 ng/mL
- Vd ([2]; plasma, IV, 0.5 mg/kg): 0.376 L/kg
- Clast ([2]; IV, 0.5 mg/kg): 24.7 ng/mL
- Tlast ([2]; IV, 0.5 mg/kg): 3 h

Compound: COc1cc2c(cc1C)CC(N)C2 (centres unmarked) [MMAI, 5-methoxy-6-methyl-2-aminoindane]
- fraction unbound at 5 h, 0.5 μM [1]: > 0.5
